The text below walks through data of article PMC12363935, “Unc-51 Like Kinase 3 (ULK3) is essential for autophagy and cell survival in multiple myeloma” (Research Square, 2025).

For one assay, the system named is U266-Luc MM cells. The assay can be described thus: U266-Luc in vivo model, tail vein injection. The conditions noted are these: 10 mg/kg/day, M-F, from day 20; days post-tumor inoculation. The procedure: For the U266-Luc model, 1 × 10^6 cells (100 μl/PBS) were tail vein injected into 4- to 6-week-old female and male NSG mice. […] Endpoint was represented by hind limb paralysis or >20% weight loss. When sacrificed, tumors tibiae were harvested and fixed in 10% neutral buffered formalin for 24 hours. Bioluminescent signal is reported as the average of the sum of dorsal and ventral signal of the mice/group/timepoint. […]
28 Animal Experimentation: All animal experiments were performed with approval from the
29 Moffitt/University of South Florida Institutional Animal Care and Use Committee (Protocol
31 validation of MA9 efficacy (Figure 4), we initially included n = 10 mice per treatment group:
Randomization based on sex, weight,
33 and initial tumor burden was conducted, followed by treatment with either vehicle control (n = 6),
35 Tumor progression was tracked via bioluminescence: endpoint was paralysis or >20% weight loss.
36 Experiments were blinded. […]
38 For MA9 therapy efficacy, mice were treated with vehicle (n=10) or MA9 (10 mg/kg/day,
39 subcutaneously, M-F from day 20; n=10) (Supplementary Fig. 7E, F). Survival and toxicity
40 (weight, clinical signs) was monitored.
43 Luciferase-labeled MM cells 5TGM1-Luc (RRID: CVCL_VI66) and U266-Luc (RRID: […]
51 cells (all from the ATCC, USA) were routinely cultured at 37 °C in Roswell Park Memorial
53 FBS1) and penicillin/streptomycin (hereafter, complete medium).
54 Cells were not used for five days following PI-treatment. All myeloma cell lines were […]

Assay [1] has as its system autophagy proteins in U266 MM cells. As to the kind of experiment: Immunoblot densitometry of autophagy proteins. In kind it is cell-based, Human. The settings on record: U266, 6h, MA9-060 1μM, JQ1 10μM, CQ 1μM; for LC3II densitometry: CTRL 0.34; for LC3I densitometry: CTRL 3.01; for ULK1 densitometry: CTRL 7.21; for ULK3 densitometry: CTRL 15.17. The protocol:
Figure 3. Anti-myeloma activity of the MA9–060 autophagy inhibitor. A. Chemical structure of the autophagy inhibitor MA9–060. […] Chloroquine (CQ) (1μM) served as a positive control for autophagy inhibition. C. […] Hoechst 33342 dye appears here as the nuclear blue staining (Multiple comparisons ANOVA, p <0.0001).
157 5872S). Protein concentration was quantified by Thermo Scientific™ Pierce™ BCA™ Protein
30 μg protein was loaded to 10%-15% gel and ran at
159 100V for 2 hours. Later protein was transferred to PVDF membrane and blocked with 5% skimmed
160 milk in TBST (10 mM Tris/HCl pH8.0, 0.12M NaCl, 0.1% Tween 20) containing 5% BSA [8] for
163 at 4°C overnight. Membranes were washed 3 times,10 minutes with TBS. Then incubated with
164 appropriate secondary antibodies at 1:1000 ratio in skimmed milk or 2% BSA. The membranes
165 were washed again 3 times for 10 minutes with TBST. ECL reagents were added to the membrane
166 and blot was developed by LICOR Imaging Studio.
167 All immunoblotting assays were performed at least in three replicates and representative
168 images are shown. Commercially available antibodies and their dilutions are listed in
169 Supplementary Table 5. Immunoblotting images were acquired and quantified using LICOR
170 Image Studio Quant software. […]

In the next assay the test system is U266. As to the kind of experiment: MTS cell viability assay. The settings on record: Homo sapiens, U-266; U266, 48h, Fig. 6E; read-out: IC50, Survival (%). In kind it is cell-based. The protocol:
(§1) Myeloma cell lines were plated in 96-well plates (2 × 10^5 cells/ml) and treated with vehicle control (HPβCD) and test compounds. Cell viability was assessed at 48 hours using the MTS assay (CellTiter 96, CAT# G3582). Absorbance was measured at 490 nm after a 2-hour incubation at 37°C. IC50 values were calculated using Prism software (version 9.3.1), and synergy matrices were generated with Combenefit Software.

In another assay the test system is U266-PSR. The assay can be described thus: MTS cell viability assay. Type of assay: cell-based. The conditions noted are these: 48h, Fig. 6E, read-out: IC50, Survival (%). The protocol:
as §1

The test system of assay [2] is MM cells (5TGM1, 8226, and U266). The assay can be described thus: MTS assay on MM cells. In kind it is cell-based. The procedure: as §1
The test system of assay [3] is autophagy in U266 MM cells. As to the kind of experiment: CYTO-ID autophagy detection. Type of assay: cell-based, Human. The protocol: Autophagic activity was monitored using the Cyto-ID Green Autophagy Detection Kit (Enzo Life Sciences, ENZ-51031-K200, USA) as per manufacturer’s instructions. Further details and protocols for quantitative analysis by Flow Cytometry and Confocal Microscopy are provided in Supplementary Materials.
248 80% confluence. Cells were pelleted again and re-suspended in Resuspension Buffer R (Neon 10
249 μl kit Invitrogen) to a final concentration of 1 × 10^7 cells/ml. 1 × 10^6 cells were then transferred to
250 a sterile 1.5 ml microcentrifuge tube (Sarstedt), brought to 10 μl final volume of cell suspension
251 with Buffer R, and mixed with Alt-R CRISPR-Cas9 crRNA: Hs.Cas9.ULK3.1.AA (position
253 […]), (Integrated DNA Technologies). Alt-R CRISPR-Cas9
254 Negative Control RNA #1 (CAT# 1079138) was used in NTC control. Cells were counted,
255 electroporated and seeded in a 24-well plate with 0.5 ml of pre-warmed supplemented RPMI
258 Measurement of autophagic activity - CytoID Assay
260 autophagic compartments. Cells were washed and treated with 1 μM tested compound or vehicle
261 control for 6h under standard tissue culture conditions. […]
270 later, cells were washed and assessed by flow cytometry. […]
272 compensation and fluorescence-minus-one (FMO) controls were generated in parallel. […]
273 fluorescence intensity (MFI) and percentage of Cyto-ID Green-expressing MM singlet live (DAPI […]

Molecules are shown by their SMILES.

`CCN(CC)CCCC(C)Nc1ccnc2cc(Cl)ccc12` (centres unmarked) [CQ, Chloroquine] registered a median survival in the assay on U266-Luc MM cells of 81.5 days. In assay [1], this compound had an LC3II densitometry of 0.14, an LC3I densitometry of 1.69, a ULK1 densitometry of 0.78 and a ULK3 densitometry of 11.1. Moreover, the half-maximal inhibitory concentration (IC50) in the assay on U266 came out at 0.055 mM. Further, the IC50 in the assay with U266-PSR was found to be 8.7 mM.

For the compound `N#CC[C@H](C1CCCC1)n1cc(-c2ncnc3[nH]ccc23)cn1` [ruxolitinib], in assay [2], the “effect on cell survival” value was “no effect”.

Take `Cc1sc2c(c1C)C(c1ccc(Cl)cc1)=N[C@@H](CC(=O)OC(C)(C)C)c1nnc(C)n1-2` [JQ1]: in the assay on U266-Luc MM cells, the median survival turned out to be 90.5 days. Moreover, in assay [1], the LC3II densitometry came to 0.40, the LC3I densitometry is reported as 3.36, the ULK1 densitometry turned out to be 6.20 and the ULK3 densitometry is recorded as 16.81. For the same compound, the effect on autophagy result in assay [3] was “no effect”.
